Measured values from the OligoGym collection.
HELM strings list units from the 5' end as sugar, base in round brackets, then linkage (d deoxyribose, r ribose, m 2'-O-methyl, p phosphodiester). Strings are as the collection lists them; they lack the last nucleoside at the 3' end of the tested compound. [moe] = 2'-O-(2-methoxyethyl) (MOE); [sp] = phosphorothioate linkage; [m5C] = 5-methylcytosine

Target: UBE3A-ATS
Experiment: mouse, dose not given
Conditions: ASO

| Substance | 3 h FOB score [score 0-7] |
| --- | --- |
| RNA1{[moe](A)[sp].[moe](G)p.[moe](A)p.[moe](G)p.[moe](T)p.d(A)[sp].d(G)[sp].d(T)[sp].d([m5C])[sp].d(T)[sp].d(A)[sp].d(T)[sp].d(T)[sp].d(G)[sp].d(G)[sp].[moe](T)p.[moe](G)p.[moe](T)[sp].[moe](T)}$$$$ (last 3' nucleoside missing) | 3.8 |
| RNA1{[moe](A)[sp].[moe](G)p.[moe](A)p.[moe](T)p.[moe](A)p.d([m5C])[sp].d(T)[sp].d([m5C])[sp].d(A)[sp].d([m5C])[sp].d(T)[sp].d([m5C])[sp].d(G)[sp].d([m5C])[sp].d(T)[sp].[moe](T)p.[moe](T)p.[moe](T)[sp].[moe]([m5C])}$$$$ (last 3' nucleoside missing) | 3.2 |
| RNA1{[moe](A)[sp].[moe](G)p.[moe](A)p.[moe]([m5C])p.[moe](T)p.d(A)[sp].d(T)[sp].d([m5C])[sp].d([m5C])[sp].d(T)[sp].d(G)[sp].d(G)[sp].d(T)[sp].d(A)[sp].d(T)[sp].[moe](G)p.[moe](A)p.[moe]([m5C])[sp].[moe](T)}$$$$ (last 3' nucleoside missing) | 6 |
| RNA1{[moe](A)[sp].[moe](G)p.[moe](A)p.[moe]([m5C])p.[moe]([m5C])p.d(T)[sp].d(A)[sp].d(T)[sp].d(A)[sp].d(G)[sp].d(G)[sp].d(A)[sp].d([m5C])[sp].d([m5C])[sp].d(T)[sp].[moe]([m5C])p.[moe](A)p.[moe](G)[sp].[moe](G)}$$$$ (last 3' nucleoside missing) | 4 |
| RNA1{[moe](A)[sp].[moe](G)p.[moe](G)p.[moe](A)p.[moe](T)p.d(T)[sp].d(A)[sp].d(A)[sp].d(A)[sp].d(A)[sp].d(G)[sp].d(T)[sp].d(T)[sp].d(G)[sp].d(A)[sp].[moe](A)p.[moe](A)p.[moe]([m5C])[sp].[moe](A)}$$$$ (last 3' nucleoside missing) | 4 |
| RNA1{[moe](A)[sp].[moe](G)p.[moe](G)p.[moe](A)p.[moe](T)p.d(T)[sp].d([m5C])[sp].d(A)[sp].d(A)[sp].d(T)[sp].d(A)[sp].d(G)[sp].d(T)[sp].d(G)[sp].d(T)[sp].[moe](A)p.[moe](G)p.[moe](G)[sp].[moe](T)}$$$$ (last 3' nucleoside missing) | 6.7 |
| RNA1{[moe](A)[sp].[moe](G)p.[moe](G)p.[moe](A)p.[moe]([m5C])p.d([m5C])[sp].d(T)[sp].d([m5C])[sp].d(A)[sp].d(G)[sp].d(G)[sp].d(A)[sp].d(G)[sp].d(A)[sp].d(T)[sp].[moe](T)p.[moe](G)p.[moe](T)[sp].[moe](A)}$$$$ (last 3' nucleoside missing) | 2.3 |
| RNA1{[moe](A)[sp].[moe](G)p.[moe](G)p.[moe](T)p.[moe](G)p.d(T)[sp].d([m5C])[sp].d(T)[sp].d(T)[sp].d(A)[sp].d(T)[sp].d(A)[sp].d(T)[sp].d([m5C])[sp].d(T)[sp].[moe](A)p.[moe](T)p.[moe](G)[sp].[moe](A)}$$$$ (last 3' nucleoside missing) | 0 |
| RNA1{[moe](A)[sp].[moe](G)p.[moe](G)p.[moe](T)p.[moe]([m5C])p.[moe](A)p.d(A)[sp].d([m5C])[sp].d([m5C])[sp].d(A)[sp].d(A)[sp].d(T)[sp].d(T)[sp].d(T)[sp].d(G)[sp].d([m5C])[sp].[moe](T)p.[moe](A)[sp].[moe](T)}$$$$ (last 3' nucleoside missing) | 5.3 |
| RNA1{[moe](A)[sp].[moe](G)p.[moe](G)p.[moe](T)p.[moe]([m5C])p.d(A)[sp].d(A)[sp].d([m5C])[sp].d([m5C])[sp].d(A)[sp].d(A)[sp].d(T)[sp].d(T)[sp].d(T)[sp].d(G)[sp].[moe]([m5C])p.[moe](T)p.[moe](A)[sp].[moe](T)}$$$$ (last 3' nucleoside missing) | 5.3 |
| RNA1{[moe](A)[sp].[moe](G)p.[moe](G)p.[moe](T)p.d([m5C])[sp].d(A)[sp].d(A)[sp].d([m5C])[sp].d([m5C])[sp].d(A)[sp].d(A)[sp].d(T)[sp].d(T)[sp].d(T)[sp].[moe](G)p.[moe]([m5C])p.[moe](T)p.[moe](A)[sp].[moe](T)}$$$$ (last 3' nucleoside missing) | 1 |
| RNA1{[moe](A)[sp].[moe](G)p.[moe](G)p.[moe]([m5C])p.[moe](A)p.d(A)[sp].d(T)[sp].d(G)[sp].d(G)[sp].d(A)[sp].d([m5C])[sp].d(T)[sp].d(T)[sp].d(A)[sp].d(G)[sp].[moe](T)p.[moe](A)p.[moe]([m5C])[sp].[moe](A)}$$$$ (last 3' nucleoside missing) | 4 |
| RNA1{[moe](A)[sp].[moe](G)p.[moe](G)p.[moe]([m5C])p.[moe](A)p.d(T)[sp].d(T)[sp].d(T)[sp].d(G)[sp].d(G)[sp].d(A)[sp].d(G)[sp].d([m5C])[sp].d(A)[sp].d(T)[sp].[moe](T)p.[moe]([m5C])p.[moe](G)[sp].[moe](G)}$$$$ (last 3' nucleoside missing) | 6.2 |
| RNA1{[moe](A)[sp].[moe](G)p.[moe](T)p.[moe](A)p.[moe](T)p.d(A)[sp].d(G)[sp].d(A)[sp].d(T)[sp].d(G)[sp].d([m5C])[sp].d([m5C])[sp].d(T)[sp].d([m5C])[sp].d(T)[sp].[moe]([m5C])p.[moe]([m5C])p.[moe](T)[sp].[moe]([m5C])}$$$$ (last 3' nucleoside missing) | 3.3 |
| RNA1{[moe](A)[sp].[moe](G)p.[moe](T)p.[moe](G)p.[moe](G)p.d(T)[sp].d(T)[sp].d(G)[sp].d([m5C])[sp].d([m5C])[sp].d(T)[sp].d(T)[sp].d(A)[sp].d(G)[sp].d(T)[sp].[moe](A)p.[moe](T)p.[moe](T)[sp].[moe](A)}$$$$ (last 3' nucleoside missing) | 6 |
| RNA1{[moe](A)[sp].[moe](G)p.[moe](T)p.[moe](G)p.[moe](T)p.d([m5C])[sp].d(A)[sp].d(T)[sp].d(A)[sp].d(T)[sp].d(G)[sp].d(T)[sp].d(A)[sp].d(G)[sp].d([m5C])[sp].[moe](A)p.[moe](A)p.[moe](T)[sp].[moe](T)}$$$$ (last 3' nucleoside missing) | 4 |
| RNA1{[moe](A)[sp].[moe](G)p.[moe](T)p.[moe](G)p.[moe]([m5C])p.d([m5C])[sp].d(T)[sp].d(T)[sp].d(T)[sp].d([m5C])[sp].d(T)[sp].d(A)[sp].d(T)[sp].d(T)[sp].d(T)[sp].[moe]([m5C])p.[moe](A)p.[moe](G)[sp].[moe](A)}$$$$ (last 3' nucleoside missing) | 0 |
| RNA1{[moe](A)[sp].[moe](G)p.[moe](T)p.[moe](T)p.[moe](T)p.d(T)[sp].d([m5C])[sp].d(G)[sp].d([m5C])[sp].d([m5C])[sp].d([m5C])[sp].d(G)[sp].d(T)[sp].d(T)[sp].d(A)[sp].[moe]([m5C])p.[moe]([m5C])p.[moe](T)[sp].[moe]([m5C])}$$$$ (last 3' nucleoside missing) | 4 |
| RNA1{[moe](A)[sp].[moe](G)p.[moe](T)p.[moe]([m5C])p.[moe](T)p.d(T)[sp].d([m5C])[sp].d(A)[sp].d(T)[sp].d(T)[sp].d(A)[sp].d(T)[sp].d(T)[sp].d([m5C])[sp].d(T)[sp].[moe]([m5C])p.[moe](T)p.[moe](A)[sp].[moe](G)}$$$$ (last 3' nucleoside missing) | 1 |
